By inhibition is commonly meant the share of the control response that was lost under treatment. By melting point is commonly meant the temperature of the solid-liquid transition.

We go through 14 compounds from patent US10959432B2, “Microbiocidal oxadiazole derivatives” (Syngenta Participations AG, priority 2016, dated 2021).

Data set [1] concerns Puccinia recondita f. sp. tritici. Nature of the data set: Fungicidal activity against Puccinia recondita f. sp. tritici / wheat / leaf disc preventative (brown rust). It counts as in vivo. The following applies: foliar, 200 ppm in the applied formulation, wheat leaf segments cv. Kanzler, preventative (inoculated 1 day after application), assessed 7 to 9 days after application, read-out: disease control compared to untreated control leaf disks. Put shortly: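 Preventative leaf-segment test: compound sprayed at 200 ppm onto wheat (cv. Kanzler) segments, brown rust spores applied 1 day after. Kept at 19C and 75% rh under 12 h light/dark cycles; disease control versus untreated check read 7 to 9 days post-application.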

Data set [2] shares this test system. Nature of the data set: Fungicidal activity against Puccinia recondita f. sp. tritici / wheat / leaf disc curative (brown rust). It counts as in vivo. The following applies: foliar, 200 ppm in the applied formulation, wheat leaf segments cv. Kanzler, curative (applied 1 day after inoculation), assessed 6 to 8 days after application, read-out: disease control compared to untreated control leaf disks. In short, it runs like this:
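Curative test: compound, diluted from DMSO stock into water, applied one day after spore inoculation of wheat (cv. Kanzler) leaf segments kept on agar in darkness at 19° C. and 75% RH. Climate-cabinet incubation (19° C., 75% RH, 12 h photoperiod); disease control relative to untreated read 6–8 days post-application.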

For a further data set, the system named is Phakopsora pachyrhizi. The experiment in a line: Fungicidal activity against Phakopsora pachyrhizi / soybean / leaf disc preventative (Asian soybean rust). It counts as in vivo. The following applies: foliar, 200 ppm in the applied formulation, soybean leaf disks, preventative (inoculated one day after application), assessed 12 to 14 days after application, read-out: disease control compared to untreated control leaf disks. Put shortly: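 Preventative test: compound applied to soybean leaf discs a day before spore inoculation of the lower surface. Discs kept at 20° C and 75% rh, first 24-36 h in darkness, then under 12 h light/day; disease control relative to untreated discs rated 12 to 14 days post-application.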

Data set [3] concerns Glomerella laqenarium (Colletotrichum lagenarium). The experiment in a line: Fungicidal activity against Glomerella lagenarium (Colletotrichum lagenarium) liquid culture / cucumber / preventative (anthracnose). It counts as cell-based. As to conditions: Colletotrichum orbiculare; 20 ppm in the applied formulation; liquid culture in PDB, 24° C., 3 to 4 days after application; read-out: disease control compared to untreated control (inhibition of growth measured photometrically). In short, it runs like this: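 Test compound, applied from DMSO solution, is combined with PDB containing conidia taken from cryogenic storage. After 3–4 days at 24 °C, growth is measured photometrically and antifungal activity expressed as percent relative to untreated control.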

The subject of another data set is Uromyces viciae-fabae. The experiment in a line: Fungicidal activity against Uromyces viciae-fabae / field bean / leaf disc preventative (faba-bean rust). It counts as in vivo. As to conditions: foliar, 288 h, 100 ppm in the applied formulation, field bean leaf discs, preventative (inoculated two hours after application), assessed 12 days after application, read-out: disease control compared to untreated control leaf discs. In short, it runs like this:
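Field bean leaf discs on water agar treated with 10 μl compound in acetone plus spreader, then spray-inoculated on the lower surface with Uromyces viciae-fabae spores 2 h later. Incubation at 22 °C, 18 h day, 70% RH; percent disease control versus untreated scored 12 days after application, compounds at 100 ppm.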

Structures are written as SMILES. Values joined by “and” are separate entries in the source; they are usually repeats but may differ in a detail not shown here. Equal entries are not always repeated. Bounds are passed on as bounds.

On to `O=C(NCC1CCCO1)c1ccc(-c2noc(C(F)(F)F)n2)cc1F` (stereo not drawn) [Compound 1b.17, 2-fluoro-N-(tetrahydrofuran-2-ylmethyl)-4-[5-(trifluoromethyl)-1,2,4-oxadiazol-3-yl]benzamide], for which the melting point fell in the range of 95.6 to 96.7 °C. Also, in data set [1], the pest or weed control at 200 ppm was at least 80%. Also, in data set [2], the pest or weed control at 200 ppm was at least 80%. The pest or weed control at 200 ppm in the data set with Phakopsora pachyrhizi is at least 80%. In data set [3], the inhibition at 20 ppm was at least 80%. In addition, the pest or weed control at 100 ppm in the data set with Uromyces viciae-fabae is at least 80%.

Regarding `O=C(NCC1CCOCC1)c1ccc(-c2noc(C(F)(F)F)n2)cc1F` [Compound 1b.18, 2-fluoro-N-(tetrahydropyran-4-ylmethyl)-4-[5-(trifluoromethyl)-1,2,4-oxadiazol-3-yl]benzamide], the melting point was 134 to 136 °C and 134 to 135.4 °C. In data set [1], the pest or weed control at 200 ppm was at least 80%. The pest or weed control at 200 ppm in data set [2] was at least 80%. In the data set on Phakopsora pachyrhizi, the pest or weed control at 200 ppm is at least 80%. In data set [3], the inhibition at 20 ppm was at least 80%. Further, the pest or weed control at 100 ppm in the data set with Uromyces viciae-fabae is at least 80%.

Take `O=C(NCC1CC1)c1ccc(-c2noc(C(F)(F)F)n2)cc1F` [Compound 2b.1, N-(cyclopropylmethyl)-2-fluoro-4-[5-(trifluoromethyl)-1,2,4-oxadiazol-3-yl]benzamide]: the melting point was 113.5 to 114.7 °C. Moreover, the pest or weed control at 200 ppm in data set [1] is at least 80%. Further, the pest or weed control at 200 ppm in data set [2] was at least 80%. Moreover, the pest or weed control at 200 ppm with Phakopsora pachyrhizi is at least 80%. For the same compound, the inhibition at 20 ppm in data set [3] is at least 80%. Also, the pest or weed control at 100 ppm in the data set with Uromyces viciae-fabae is at least 80%.

Regarding `C=CCNC(=O)c1ccc(-c2noc(C(F)(F)F)n2)cc1` [Compound 3a.1, N-allyl-4-[5-(trifluoromethyl)-1,2,4-oxadiazol-3-yl]benzamide], the melting point is 135 to 136 °C and 135 to 146 °C. Besides, the pest or weed control at 200 ppm in data set [1] was at least 80%. Moreover, in data set [2], the pest or weed control at 200 ppm was at least 80%. The pest or weed control at 200 ppm with Phakopsora pachyrhizi is at least 80%. For the same compound, the inhibition at 20 ppm in data set [3] is at least 80%. Moreover, the pest or weed control at 100 ppm in the data set on Uromyces viciae-fabae was at least 80%.

The compound `C#CCNC(=O)c1ccc(-c2noc(C(F)(F)F)n2)cc1` [Compound 3a.2, N-prop-2-ynyl-4-[5-(trifluoromethyl)-1,2,4-oxadiazol-3-yl]benzamide] returned a melting point of 168.5 to 170 °C. Also, the pest or weed control at 200 ppm in data set [1] is at least 80%. Moreover, the pest or weed control at 200 ppm in data set [2] was at least 80%. In addition, in the data set on Phakopsora pachyrhizi, the pest or weed control at 200 ppm was at least 80%. Moreover, in data set [3], the inhibition at 20 ppm was at least 80%. Besides, in the data set with Uromyces viciae-fabae, the pest or weed control at 100 ppm was at least 80%.

For `CCCNC(=O)c1ccc(-c2noc(C(F)(F)F)n2)cc1F` [Compound 3b.1, 2-fluoro-N-propyl-4-[5-(trifluoromethyl)-1,2,4-oxadiazol-3-yl]benzamide], the melting point is 118.5 to 119.9 °C. For the same compound, in data set [1], the pest or weed control at 200 ppm was at least 80%. In data set [2], the pest or weed control at 200 ppm was at least 80%. Moreover, the pest or weed control at 200 ppm in the data set with Phakopsora pachyrhizi was at least 80%. Also, the inhibition at 20 ppm in data set [3] was at least 80%. Moreover, the pest or weed control at 100 ppm with Uromyces viciae-fabae is at least 80%.

As to `CCNC(=O)c1ccc(-c2noc(C(F)(F)F)n2)cc1F` [Compound 3b.2, N-ethyl-2-fluoro-4-[5-(trifluoromethyl)-1,2,4-oxadiazol-3-yl]benzamide], the melting point was in the range of 125 to 127 °C. Besides, in data set [1], the pest or weed control at 200 ppm is at least 80%. Moreover, the pest or weed control at 200 ppm in data set [2] is at least 80%. For the same compound, the pest or weed control at 200 ppm in the data set with Phakopsora pachyrhizi is at least 80%. In addition, the inhibition at 20 ppm in data set [3] is at least 80%. For the same compound, the pest or weed control at 100 ppm in the data set with Uromyces viciae-fabae was at least 80%.

Consider `C=CCNC(=O)c1ccc(-c2noc(C(F)(F)F)n2)cc1F` [Compound 3b.3, N-allyl-2-fluoro-4-[5-(trifluoromethyl)-1,2,4-oxadiazol-3-yl]benzamide], for which the melting point is 108 to 109.3 °C. In addition, the pest or weed control at 200 ppm in data set [1] was at least 80%. Besides, the pest or weed control at 200 ppm in data set [2] is at least 80%. Also, in the data set on Phakopsora pachyrhizi, the pest or weed control at 200 ppm is at least 80%. Besides, the inhibition at 20 ppm in data set [3] is at least 80%. Moreover, the pest or weed control at 100 ppm in the data set on Uromyces viciae-fabae was at least 80%.

Consider `C#CCNC(=O)c1ccc(-c2noc(C(F)(F)F)n2)cc1F` [Compound 3b.4, 2-fluoro-N-prop-2-ynyl-4-[5-(trifluoromethyl)-1,2,4-oxadiazol-3-yl]benzamide], for which the melting point lay within 128.2 to 129.4 °C. Also, the pest or weed control at 200 ppm in data set [1] is at least 80%. Further, the pest or weed control at 200 ppm in data set [2] is at least 80%. Also, in the data set on Phakopsora pachyrhizi, the pest or weed control at 200 ppm is at least 80%. Moreover, in data set [3], the inhibition at 20 ppm is at least 80%. Moreover, the pest or weed control at 100 ppm in the data set with Uromyces viciae-fabae is at least 80%.

`CC(C)CNC(=O)c1ccc(-c2noc(C(F)(F)F)n2)cc1F` [Compound 3b.5, 2-fluoro-N-isobutyl-4-[5-(trifluoromethyl)-1,2,4-oxadiazol-3-yl]benzamide] yielded a melting point of 126.6 to 128.3 °C. Moreover, the pest or weed control at 200 ppm in data set [1] is at least 80%. The pest or weed control at 200 ppm in data set [2] is at least 80%. For the same compound, in the data set on Phakopsora pachyrhizi, the pest or weed control at 200 ppm is at least 80%. In addition, the inhibition at 20 ppm in data set [3] was at least 80%. For the same compound, the pest or weed control at 100 ppm in the data set with Uromyces viciae-fabae was at least 80%.

Compound `COCCNC(=O)c1ccc(-c2noc(C(F)(F)F)n2)cc1F` [Compound 3b.6, 2-fluoro-N-(2-methoxyethyl)-4-[5-(trifluoromethyl)-1,2,4-oxadiazol-3-yl]benzamide] showed a melting point of 87.6 to 89 °C. In addition, the pest or weed control at 200 ppm in data set [1] is at least 80%. Further, the pest or weed control at 200 ppm in data set [2] is at least 80%. For the same compound, the pest or weed control at 200 ppm in the data set with Phakopsora pachyrhizi was at least 80%. Also, the inhibition at 20 ppm in data set [3] was at least 80%. Moreover, in the data set with Uromyces viciae-fabae, the pest or weed control at 100 ppm was at least 80%.

The compound `C#CC(C)(C)NC(=O)c1ccc(-c2noc(C(F)(F)F)n2)cc1F` [Compound 3b.8, N-(1,1-dimethylprop-2-ynyl)-2-fluoro-4-[5-(trifluoromethyl)-1,2,4-oxadiazol-3-yl]benzamide] showed a melting point of 69.2 to 69.7 °C. Further, in data set [1], the pest or weed control at 200 ppm is at least 80%. In data set [2], the pest or weed control at 200 ppm was at least 80%. For the same compound, the pest or weed control at 200 ppm in the data set with Phakopsora pachyrhizi was at least 80%. The inhibition at 20 ppm in data set [3] was at least 80%. Besides, the pest or weed control at 100 ppm in the data set with Uromyces viciae-fabae is at least 80%.

`Cc1ccccc1CNC(=O)c1ccc(-c2noc(C(F)(F)F)n2)cc1` [Compound 4a.4, N-(o-tolylmethyl)-4-[5-(trifluoromethyl)-1,2,4-oxadiazol-3-yl]benzamide] displayed a melting point of 135 to 141 °C. The pest or weed control at 200 ppm in data set [1] is at least 80%. Moreover, the pest or weed control at 200 ppm in data set [2] is at least 80%. The pest or weed control at 200 ppm in the data set with Phakopsora pachyrhizi is at least 80%. The inhibition at 20 ppm in data set [3] is at least 80%. In addition, the pest or weed control at 100 ppm in the data set with Uromyces viciae-fabae was at least 80%.

In turn, `CC(NC(=O)c1ccc(-c2noc(C(F)(F)F)n2)cc1)c1ccccc1` (stereo not drawn) [Compound 4a.5, N-(1-phenylethyl)-4-[5-(trifluoromethyl)-1,2,4-oxadiazol-3-yl]benzamide] gave a melting point of 144 to 148 °C. For the same compound, in data set [1], the pest or weed control at 200 ppm is at least 80%. In addition, in data set [2], the pest or weed control at 200 ppm is at least 80%. For the same compound, the pest or weed control at 200 ppm in the data set on Phakopsora pachyrhizi is at least 80%. Also, the inhibition at 20 ppm in data set [3] was at least 80%. Moreover, in the data set on Uromyces viciae-fabae, the pest or weed control at 100 ppm is at least 80%.
